Data published in US9409905B2, “Antibacterial compounds and methods for use” (PTC THERAPEUTICS, INC., priority 2011, dated 2016).
Values after ≈ are worked out from the molar mass of the structure shown.

What was measured:
[1] = tested on: Escherichia coli (E. coli) BAS849; assay: Antibacterial activity, microbroth dilution MIC (Table 1); assay type: cell-based; settings: microbroth dilution, super sensitive Gram-negative E. coli BAS849, read-out: MIC, BAS849
Procedure, shortened: (§1)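 Potency is reported as minimum inhibitory concentration in μg/mL, determined by broth microdilution as the lowest level of compound that stops growth visible to the eye.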

[2] = tested on: Staphylococcus aureus (S. aureus) 29213; assay: as above; assay type: cell-based; settings: microbroth dilution, Gram-positive S. aureus 29213, read-out: MIC, 29213
Procedure, shortened: as §1

E. coli ELZ4000 = assay: Antibacterial activity, MIC, multi-drug resistant clinical isolate (Table 3); assay type: cell-based; settings: Escherichia coli, ELZ4000, read-out: MIC ELZ4000
Procedure, shortened: (§2)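 Microbroth dilution. Endpoint: absence of macroscopically visible growth. Value = MIC, μg/mL.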

E. coli ELZ4251 = assay: as above; assay type: cell-based; settings: Escherichia coli
Procedure, shortened: as §2

K. pneumoniae MXX1232 = assay: Antibacterial activity, MIC, resistant strain (Table 4); assay type: cell-based; settings: Klebsiella pneumoniae, MXX1232; resistant K. pneumoniae MMX1232, multi-drug resistant clinical isolate; read-out: MIC, MMX1232
Procedure, shortened: (§3)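 MIC in μg/mL by microbroth dilution, scored as the lowest level that suppresses visible growth.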

A. baumannii MXX2240 = assay: as above; assay type: cell-based; settings: Acinetobacter baumannii, MXX2240; resistant A. baumannii MMX2240, multi-drug resistant clinical isolate; read-out: MIC, MMX2240
Procedure, shortened: as §3

[3] = tested on: Acinetobacter baumannii (A. baumannii) BAA747; assay: Antibacterial activity, MIC (Table 4); assay type: cell-based; settings: A. baumannii BAA747, read-out: MIC, BAA747
Procedure, shortened: as §3

[4] = tested on: Klebsiella pneumoniae (K. pneumoniae) 35657; assay: Antibacterial activity, MIC (Table 4); assay type: cell-based; settings: K. pneumoniae 35657, read-out: MIC, 35657
Procedure, shortened: as §3

[5] = tested on: Moraxella catarrhalis (M. catarrhalis) 25238; assay: Antibacterial activity, MIC (Table 7); assay type: cell-based
Procedure, shortened: (§4)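 Broth microdilution; MIC (μg/mL) = lowest concentration with no macroscopically visible growth.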

[6] = tested on: Pseudomonas aeruginosa (P. aeruginosa) 27853; assay: Antibacterial activity, MIC (Table 5); assay type: cell-based; settings: P. aeruginosa 27853, read-out: MIC, 27853
Procedure, shortened: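 Compounds are serially diluted in broth and inoculated with the organism. Growth is then inspected macroscopically, and the lowest concentration showing none is taken as the MIC (μg/mL).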

[7] = tested on: Haemophilus influenzae (H. influenzae) 49247; assay: Antibacterial activity, MIC (Table 6); assay type: cell-based
Procedure, shortened: as §4

E. coli LZ3111 = assay: Antibacterial activity, MIC, quinolone resistant strain (Table 2); assay type: cell-based; settings: Escherichia coli, LZ3111, read-out: MIC LZ3111
Procedure, shortened: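 Strain carries mutations conferring high-level quinolone resistance; tested by microbroth dilution, MIC recorded in μg/mL as lowest concentration preventing visible growth.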

E. coli 25922 = assay: Antibacterial activity, microbroth dilution MIC (Table 1); assay type: cell-based, Escherichia coli; settings: Escherichia coli; microbroth dilution; control Gram-negative E. coli 25922 strain; read-out: MIC, 25922
Procedure, shortened: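 Broth microdilution; endpoint = no macroscopic growth; value = lowest inhibiting concn, μg/mL.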

[8] = tested on: Neisseria meningitidis (N. meningitidis) 13090; assay: Antibacterial activity, MIC (Table 8); assay type: cell-based
Procedure, shortened: as §4

| SMILES | MIC [1] [µg/mL] | MIC [2] [µg/mL] | MIC (E. coli ELZ4000) [µg/mL] | MIC (E. coli ELZ4251) [µg/mL] | MIC (K. pneumoniae MXX1232) [µg/mL] | MIC (A. baumannii MXX2240) [µg/mL] | MIC [3] [µg/mL] | MIC [4] [µg/mL] | MIC [5] [µg/mL] | MIC [6] [µg/mL] | MIC [7] [µg/mL] | MIC (E. coli LZ3111) [µg/mL] | MIC (E. coli 25922) [µg/mL] | MIC [8] [µg/mL] |
| --- | --- | --- | --- | --- | --- | --- | --- | --- | --- | --- | --- | --- | --- | --- |
| CCc1c(-c2ccc3c(c2)cc(CNC2(C)CC2)n3C)[nH]c(=O)c(C(=O)O)c1O [Cpd 275, 5-ethyl-4-hydroxy-6-(1-methyl-2-((1-methylcyclopropylamino)methyl)-1H-indol-5-yl)-2-oxo-1,2-dihydropyridine-3-carboxylic acid] | < 1 | 3.5 to 12.5 (≈ 8.85 to 31.6 µM) | 1 to 3.5 (≈ 2.53 to 8.85 µM) | 1 to 3.5 (≈ 2.53 to 8.85 µM) | 12.5 to 150 (≈ 31.6 to 379 µM) | < 1 | < 1 | 1 to 3.5 (≈ 2.53 to 8.85 µM) | < 1 | 3.5 to 12.5 (≈ 8.85 to 31.6 µM) | < 1 | < 1 | < 1 | < 1 |
| CCc1c(-c2ccc3c(c2)cc(CN2C[C@H]4CC[C@@H](N)[C@H]4C2)n3C)[nH]c(=O)c(C(=O)O)c1O [Cpd 276, 6-(2-(((3aR,4R,6aS)-4-aminohexahydrocyclopenta[c]pyrrol-2(1H)-yl)methyl)-1-methyl-1H-indol-5-yl)-5-ethyl-4-hydroxy-2-oxo-1,2-dihydropyridine-3-carboxylic acid] | < 1 | 3.5 to 12.5 (≈ 7.77 to 27.7 µM) | 12.5 to 150 (≈ 27.7 to 333 µM) | 12.5 to 150 (≈ 27.7 to 333 µM) | 12.5 to 150 (≈ 27.7 to 333 µM) | 12.5 to 150 (≈ 27.7 to 333 µM) | 12.5 to 150 (≈ 27.7 to 333 µM) | 1 to 3.5 (≈ 2.22 to 7.77 µM) | 1 to 3.5 (≈ 2.22 to 7.77 µM) | 12.5 to 150 (≈ 27.7 to 333 µM) | 1 to 3.5 (≈ 2.22 to 7.77 µM) | 3.5 to 12.5 (≈ 7.77 to 27.7 µM) | 1 to 3.5 (≈ 2.22 to 7.77 µM) | < 1 |
| C#CCNCc1cc2cc(-c3[nH]c(=O)c(C(=O)O)c(O)c3CC)ccc2n1C.Cl [Cpd 277, 5-ethyl-4-hydroxy-6-(1-methyl-2-((prop-2-ynylamino)methyl)-1H-indol-5-yl)-2-oxo-1,2-dihydropyridine-3-carboxylic acid hydrochloride] | < 1 | 1 to 3.5 | 12.5 to 150 | 3.5 to 12.5 | 12.5 to 150 | 12.5 to 150 | 1 to 3.5 | 1 to 3.5 | < 1 | 12.5 to 150 | < 1 | 1 to 3.5 | < 1 | < 1 |
| CCc1c(-c2ccc3c(c2)cc(CN2C[C@H]4CCC[C@@H](N(C)C)[C@H]4C2)n3C)[nH]c(=O)c(C(=O)O)c1O [Cpd 279, 6-(2-(((3aR,4R,7aS)-4-(dimethylamino)-1H-isoindol-2(3H,3aH,4H,5H,6H,7H,7aH)-yl)methyl)-1-methyl-1H-indol-5-yl)-5-ethyl-4-hydroxy-2-oxo-1,2-dihydropyridine-3-carboxylic acid] | < 1 | 3.5 to 12.5 (≈ 7.1 to 25.4 µM) | 12.5 to 150 (≈ 25.4 to 304 µM) | 12.5 to 150 (≈ 25.4 to 304 µM) | 12.5 to 150 (≈ 25.4 to 304 µM) | 12.5 to 150 (≈ 25.4 to 304 µM) | 1 to 3.5 (≈ 2.03 to 7.1 µM) | 1 to 3.5 (≈ 2.03 to 7.1 µM) | 1 to 3.5 (≈ 2.03 to 7.1 µM) | 12.5 to 150 (≈ 25.4 to 304 µM) | 1 to 3.5 (≈ 2.03 to 7.1 µM) | 1 to 3.5 (≈ 2.03 to 7.1 µM) | 1 to 3.5 (≈ 2.03 to 7.1 µM) | < 1 |
| CCc1c(-c2ccc3c(c2)cc(CN2C[C@H]4CCC[C@@H](NC)[C@H]4C2)n3C)[nH]c(=O)c(C(=O)O)c1O [Cpd 282, 5-ethyl-4-hydroxy-6-(1-methyl-2-(((3aR,4R,7aS)-4-(methylamino)-1H-isoindol-2(3H,3aH,4H,5H,6H,7H,7aH)-yl)methyl)-1H-indol-5-yl)-2-oxo-1,2-dihydropyridine-3-carboxylic acid] | < 1 | 12.5 to 150 (≈ 26.1 to 313 µM) | 12.5 to 150 (≈ 26.1 to 313 µM) | 3.5 to 12.5 (≈ 7.31 to 26.1 µM) | 12.5 to 150 (≈ 26.1 to 313 µM) | 12.5 to 150 (≈ 26.1 to 313 µM) | 12.5 to 150 (≈ 26.1 to 313 µM) | 1 to 3.5 (≈ 2.09 to 7.31 µM) | 3.5 to 12.5 (≈ 7.31 to 26.1 µM) | 12.5 to 150 (≈ 26.1 to 313 µM) | 1 to 3.5 (≈ 2.09 to 7.31 µM) | 1 to 3.5 (≈ 2.09 to 7.31 µM) | < 1 | 1 to 3.5 (≈ 2.09 to 7.31 µM) |
| CCc1c(-c2ccc3c(c2)cc(CN2C[C@H]4C[C@@H](N(C)C)C[C@H]4C2)n3C)[nH]c(=O)c(C(=O)O)c1O [Cpd 285, 6-(2-(((3aR,5r,6aS)-5-(dimethylamino)hexahydrocyclopenta[c]pyrrol-2(1H)-yl)methyl)-1-methyl-1H-indol-5-yl)-5-ethyl-4-hydroxy-2-oxo-1,2-dihydropyridine-3-carboxylic acid] | < 1 | 12.5 to 150 (≈ 26.1 to 313 µM) | 12.5 to 150 (≈ 26.1 to 313 µM) | 3.5 to 12.5 (≈ 7.31 to 26.1 µM) | 12.5 to 150 (≈ 26.1 to 313 µM) | 12.5 to 150 (≈ 26.1 to 313 µM) | 3.5 to 12.5 (≈ 7.31 to 26.1 µM) | 1 to 3.5 (≈ 2.09 to 7.31 µM) | 1 to 3.5 (≈ 2.09 to 7.31 µM) | 12.5 to 150 (≈ 26.1 to 313 µM) | 1 to 3.5 (≈ 2.09 to 7.31 µM) | 1 to 3.5 (≈ 2.09 to 7.31 µM) | 1 to 3.5 (≈ 2.09 to 7.31 µM) | < 1 |
